Results taken from the kinase profiling compilation of Christmann-Franck et al. (2016).
Blank lines part the entries; values can stand above or below the compound they belong to.

Legend:
Test in all cases: radiometric filter-binding kinase assay, Kinaseprofiler
[1] = test system: SGK2 (human), Q9HBY8 [S416D]; conditions: ATP 15 µM
[2] = test system: TEK (human), Q02763 [Q939H/Q940H]; conditions: ATP 200 µM
[3] = test system: AKT1 (human), P31749 [S478G]; conditions: ATP 155 µM
[4] = test system: GSK3A (human), P49840 [S449A]; conditions: ATP 10 µM
Chain of GSK3A (human), P49840 [S449A] (P49840 whole entry, looked up, stated change not applied): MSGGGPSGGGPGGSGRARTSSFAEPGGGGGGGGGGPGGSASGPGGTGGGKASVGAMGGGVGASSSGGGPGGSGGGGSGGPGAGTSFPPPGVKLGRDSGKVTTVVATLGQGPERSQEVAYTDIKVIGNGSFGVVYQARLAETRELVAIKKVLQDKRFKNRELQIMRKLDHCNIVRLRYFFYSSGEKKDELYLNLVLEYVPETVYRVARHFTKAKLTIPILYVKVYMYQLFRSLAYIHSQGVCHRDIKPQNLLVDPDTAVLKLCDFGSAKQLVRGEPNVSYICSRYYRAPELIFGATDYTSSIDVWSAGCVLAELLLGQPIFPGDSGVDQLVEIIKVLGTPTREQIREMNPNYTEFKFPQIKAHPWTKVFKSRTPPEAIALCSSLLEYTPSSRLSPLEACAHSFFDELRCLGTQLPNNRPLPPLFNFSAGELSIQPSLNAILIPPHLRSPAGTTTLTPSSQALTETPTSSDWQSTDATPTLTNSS

[5] = test system: TAOK3 (human), Q9H2K8 [N47S]; conditions: ATP 15 µM
[6] = target: PRKAA2 PRKAB1 PRKAG1 (human) (UniProt P54619+P54646+Q9Y478); conditions: ATP 45 µM
Chain of PRKAA2 PRKAB1 PRKAG1 (human) (P54619 whole entry, looked up): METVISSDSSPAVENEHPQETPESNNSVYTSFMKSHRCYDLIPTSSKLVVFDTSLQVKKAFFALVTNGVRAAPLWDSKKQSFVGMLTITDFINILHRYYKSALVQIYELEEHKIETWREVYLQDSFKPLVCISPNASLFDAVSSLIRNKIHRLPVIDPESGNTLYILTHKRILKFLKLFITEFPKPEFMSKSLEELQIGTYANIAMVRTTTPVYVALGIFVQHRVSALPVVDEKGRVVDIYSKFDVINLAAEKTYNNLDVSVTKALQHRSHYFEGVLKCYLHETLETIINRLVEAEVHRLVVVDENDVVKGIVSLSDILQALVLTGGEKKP
Chain of PRKAA2 PRKAB1 PRKAG1 (human) (P54646 whole entry, looked up): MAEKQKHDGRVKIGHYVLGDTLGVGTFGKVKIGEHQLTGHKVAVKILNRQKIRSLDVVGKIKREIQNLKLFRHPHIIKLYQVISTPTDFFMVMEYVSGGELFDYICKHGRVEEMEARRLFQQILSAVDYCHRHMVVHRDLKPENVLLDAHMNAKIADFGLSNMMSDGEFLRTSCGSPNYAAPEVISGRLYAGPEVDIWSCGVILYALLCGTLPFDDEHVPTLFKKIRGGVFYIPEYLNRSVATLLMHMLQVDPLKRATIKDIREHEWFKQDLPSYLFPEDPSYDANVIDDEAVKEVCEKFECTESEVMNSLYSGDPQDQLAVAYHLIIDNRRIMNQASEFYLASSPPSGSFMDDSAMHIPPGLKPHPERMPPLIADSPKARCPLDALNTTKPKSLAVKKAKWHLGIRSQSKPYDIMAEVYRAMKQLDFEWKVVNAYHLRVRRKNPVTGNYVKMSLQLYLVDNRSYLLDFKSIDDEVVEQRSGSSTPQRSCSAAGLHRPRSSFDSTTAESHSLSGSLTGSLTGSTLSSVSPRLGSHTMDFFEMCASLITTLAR
Chain of PRKAA2 PRKAB1 PRKAG1 (human) (Q9Y478 whole entry, looked up): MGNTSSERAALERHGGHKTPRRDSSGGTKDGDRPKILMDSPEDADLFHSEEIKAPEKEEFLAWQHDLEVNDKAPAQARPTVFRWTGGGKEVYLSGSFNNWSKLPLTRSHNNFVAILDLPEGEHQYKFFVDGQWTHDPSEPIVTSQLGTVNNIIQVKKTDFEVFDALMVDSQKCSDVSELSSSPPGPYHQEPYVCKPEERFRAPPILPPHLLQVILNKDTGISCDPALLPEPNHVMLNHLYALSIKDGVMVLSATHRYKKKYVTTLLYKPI

CDK7 CCNH MNAT1 (human) = CDK7 CCNH MNAT1 (human) (UniProt P50613+P51948+P51946); conditions: ATP 90 µM
Chain of CDK7 CCNH MNAT1 (human) (P50613 whole entry, looked up): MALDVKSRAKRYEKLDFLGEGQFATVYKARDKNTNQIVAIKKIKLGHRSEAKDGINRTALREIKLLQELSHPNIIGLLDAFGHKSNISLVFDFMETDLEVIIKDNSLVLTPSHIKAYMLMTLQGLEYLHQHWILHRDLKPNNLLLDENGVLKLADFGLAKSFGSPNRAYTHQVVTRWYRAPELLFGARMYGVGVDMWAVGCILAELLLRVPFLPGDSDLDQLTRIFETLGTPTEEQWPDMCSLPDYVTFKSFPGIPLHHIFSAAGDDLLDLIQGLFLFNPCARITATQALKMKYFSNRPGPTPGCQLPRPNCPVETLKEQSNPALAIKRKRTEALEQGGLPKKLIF
Chain of CDK7 CCNH MNAT1 (human) (P51946 whole entry, looked up): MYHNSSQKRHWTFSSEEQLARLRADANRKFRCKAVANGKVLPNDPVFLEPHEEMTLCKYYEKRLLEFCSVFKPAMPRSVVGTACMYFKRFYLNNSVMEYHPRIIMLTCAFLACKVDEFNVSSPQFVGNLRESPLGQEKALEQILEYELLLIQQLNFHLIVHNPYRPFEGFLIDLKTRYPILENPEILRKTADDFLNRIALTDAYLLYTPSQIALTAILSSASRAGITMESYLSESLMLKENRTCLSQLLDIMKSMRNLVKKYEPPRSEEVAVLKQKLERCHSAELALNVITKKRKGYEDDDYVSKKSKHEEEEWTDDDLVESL
Chain of CDK7 CCNH MNAT1 (human) (P51948 whole entry, looked up): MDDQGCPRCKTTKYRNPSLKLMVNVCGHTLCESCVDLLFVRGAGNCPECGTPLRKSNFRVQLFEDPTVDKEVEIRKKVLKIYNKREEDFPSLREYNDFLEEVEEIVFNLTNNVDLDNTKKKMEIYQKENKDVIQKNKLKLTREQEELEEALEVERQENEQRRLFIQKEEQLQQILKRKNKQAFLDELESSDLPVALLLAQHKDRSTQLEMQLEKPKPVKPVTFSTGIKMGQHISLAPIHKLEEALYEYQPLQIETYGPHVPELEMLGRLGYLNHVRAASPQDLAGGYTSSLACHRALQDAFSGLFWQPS

MTOR FKBP1A (human) = MTOR FKBP1A (human) (UniProt P42345+P62942); conditions: ATP 45 µM
CDK3 CCNE1 (human) = CDK3 CCNE1 (human) (UniProt Q00526+P24864); conditions: ATP 200 µM
Chain of CDK3 CCNE1 (human) (P24864 whole entry, looked up): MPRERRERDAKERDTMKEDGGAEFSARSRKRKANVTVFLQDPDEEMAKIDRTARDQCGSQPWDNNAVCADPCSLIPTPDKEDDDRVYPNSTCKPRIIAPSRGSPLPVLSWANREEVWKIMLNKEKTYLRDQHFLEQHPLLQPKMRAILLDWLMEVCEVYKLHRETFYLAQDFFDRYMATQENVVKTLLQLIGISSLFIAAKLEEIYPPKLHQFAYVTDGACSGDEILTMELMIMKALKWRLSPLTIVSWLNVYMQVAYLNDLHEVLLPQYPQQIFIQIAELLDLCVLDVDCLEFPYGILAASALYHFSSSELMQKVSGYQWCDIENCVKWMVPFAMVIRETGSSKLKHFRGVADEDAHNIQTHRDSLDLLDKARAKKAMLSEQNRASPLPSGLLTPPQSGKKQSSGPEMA
Chain of CDK3 CCNE1 (human) (Q00526 whole entry, looked up): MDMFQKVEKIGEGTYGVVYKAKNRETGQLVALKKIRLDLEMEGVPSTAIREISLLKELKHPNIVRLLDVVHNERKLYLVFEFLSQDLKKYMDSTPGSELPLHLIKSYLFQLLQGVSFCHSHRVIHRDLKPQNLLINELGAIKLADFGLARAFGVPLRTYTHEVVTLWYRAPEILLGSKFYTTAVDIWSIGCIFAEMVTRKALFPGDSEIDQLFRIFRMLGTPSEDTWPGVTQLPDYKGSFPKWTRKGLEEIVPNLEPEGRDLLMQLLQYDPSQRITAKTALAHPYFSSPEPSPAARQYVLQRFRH

CDK2 CCNE1 (human) = CDK2 CCNE1 (human) (UniProt P24941+P24864); conditions: ATP 120 µM
CDK2 CCNA2 (human) = CDK2 CCNA2 (human) (UniProt P24941+P20248); conditions: ATP 45 µM

Chain of TEK (human), Q02763 [Q939H/Q940H] (Q02763 whole entry Q939H/Q940H, looked up): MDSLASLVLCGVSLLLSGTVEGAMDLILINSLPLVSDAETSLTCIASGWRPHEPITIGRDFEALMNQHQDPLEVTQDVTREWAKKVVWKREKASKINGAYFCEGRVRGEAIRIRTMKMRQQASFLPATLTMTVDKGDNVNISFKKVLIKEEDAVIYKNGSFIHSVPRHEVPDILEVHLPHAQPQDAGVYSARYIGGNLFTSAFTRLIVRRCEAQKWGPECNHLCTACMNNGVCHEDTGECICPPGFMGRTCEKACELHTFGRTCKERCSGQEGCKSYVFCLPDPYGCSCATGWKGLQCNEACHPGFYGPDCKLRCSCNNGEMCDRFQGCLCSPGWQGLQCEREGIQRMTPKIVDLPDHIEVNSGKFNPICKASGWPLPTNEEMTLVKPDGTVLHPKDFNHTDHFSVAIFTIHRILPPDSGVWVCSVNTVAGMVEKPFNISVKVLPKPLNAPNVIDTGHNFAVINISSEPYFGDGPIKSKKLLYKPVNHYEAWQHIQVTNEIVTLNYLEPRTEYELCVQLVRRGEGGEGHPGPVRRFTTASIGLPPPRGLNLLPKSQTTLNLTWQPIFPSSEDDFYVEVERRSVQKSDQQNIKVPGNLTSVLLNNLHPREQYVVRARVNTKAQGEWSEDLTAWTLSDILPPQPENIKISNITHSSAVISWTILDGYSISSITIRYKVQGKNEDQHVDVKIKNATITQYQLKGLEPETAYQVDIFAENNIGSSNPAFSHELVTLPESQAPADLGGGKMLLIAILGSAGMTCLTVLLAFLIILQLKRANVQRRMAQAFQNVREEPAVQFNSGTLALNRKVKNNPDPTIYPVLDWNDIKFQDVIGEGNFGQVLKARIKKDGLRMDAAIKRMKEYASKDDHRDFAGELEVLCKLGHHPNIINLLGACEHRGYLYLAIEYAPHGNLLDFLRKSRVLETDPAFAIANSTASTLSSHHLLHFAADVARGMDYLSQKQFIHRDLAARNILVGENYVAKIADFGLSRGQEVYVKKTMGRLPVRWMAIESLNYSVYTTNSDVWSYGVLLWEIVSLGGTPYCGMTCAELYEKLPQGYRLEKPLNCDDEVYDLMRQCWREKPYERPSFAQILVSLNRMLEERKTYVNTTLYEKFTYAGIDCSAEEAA
Chain of AKT1 (human), P31749 [S478G] (P31749 whole entry, looked up, stated change not applied): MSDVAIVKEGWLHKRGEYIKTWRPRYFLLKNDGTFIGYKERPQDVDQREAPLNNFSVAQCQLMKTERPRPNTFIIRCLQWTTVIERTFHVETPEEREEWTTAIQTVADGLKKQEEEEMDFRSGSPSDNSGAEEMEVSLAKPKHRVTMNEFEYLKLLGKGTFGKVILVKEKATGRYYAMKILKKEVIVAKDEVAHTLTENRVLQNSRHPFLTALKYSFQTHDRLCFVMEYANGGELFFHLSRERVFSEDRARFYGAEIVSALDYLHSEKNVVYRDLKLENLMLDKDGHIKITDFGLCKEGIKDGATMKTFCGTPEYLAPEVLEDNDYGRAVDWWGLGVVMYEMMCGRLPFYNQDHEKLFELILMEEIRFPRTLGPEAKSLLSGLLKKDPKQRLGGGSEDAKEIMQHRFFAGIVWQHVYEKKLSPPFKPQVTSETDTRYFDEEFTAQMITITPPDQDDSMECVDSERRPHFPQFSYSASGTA

residual activity ([1]; compound 1.0 µM): 61% | residual activity ([1]; compound 10.0 µM): 24% | residual activity ([2]; compound 1.0 µM): 103% | residual activity ([2]; compound 10.0 µM): 41% | residual activity ([3]; compound 1.0 µM): 107% | residual activity ([3]; compound 10.0 µM): 98% | residual activity ([4]; compound 1.0 µM): 5% | residual activity ([4]; compound 10.0 µM): 1% | residual activity ([5]; compound 1.0 µM): 85% | residual activity ([5]; compound 10.0 µM): 28%
Compound: O=C1Nc2ccccc2/C1=C1\Nc2ccccc2\C1=N/O

residual activity ([6]; compound 1.0 µM): 93% | residual activity ([6]; compound 10.0 µM): 107% | residual activity (CDK7 CCNH MNAT1 (human); compound 1.0 µM): 88% | residual activity (CDK7 CCNH MNAT1 (human); compound 10.0 µM): 94% | residual activity (MTOR FKBP1A (human); compound 1.0 µM): -17% | residual activity (MTOR FKBP1A (human); compound 10.0 µM): 4% | residual activity (CDK3 CCNE1 (human); compound 1.0 µM): 90% | residual activity (CDK3 CCNE1 (human); compound 10.0 µM): 86% | residual activity (CDK2 CCNE1 (human); compound 1.0 µM): 105% | residual activity (CDK2 CCNE1 (human); compound 10.0 µM): 96% | residual activity (CDK2 CCNA2 (human); compound 1.0 µM): 129% | residual activity (CDK2 CCNA2 (human); compound 10.0 µM): 113%
Compound: CO[C@H]1CC2CC[C@@H](C)[C@@](O)(O2)C(=O)C(=O)N2CCCC[C@H]2C(=O)OC([C@H](C)C[C@@H]2CC[C@@H](O)[C@H](OC)C2)CC(=O)[C@H](C)/C=C(\C)[C@@H](O)[C@@H](OC)C(=O)[C@H](C)C[C@H](C)/C=C/C=C/C=C/1C (stereo partly drawn)

residual activity ([2]; compound 10.0 µM): 17%
Compound: O=C(Nc1cccc(Nc2nccc(Nc3cccc(C(F)(F)F)c3)n2)c1)C1CC1
